Test results reported in article PMC3501490 (PLoS ONE, 2012).
Where no end group is shown, it is not given here. [ ]: non-standard residue; d: D form. pY = N[C@@H](Cc1ccc(OP(=O)(O)O)cc1)C(=O)O

Columns and labels:
SHP-2 = test: Peptide pull down from platelet lysate, SHP-2; format: binding; conditions: human platelet lysate, Western blotting; 4°C, 30 min; n = 3
Method: (§1) Forty micrograms of peptide were coupled to 50 µl of Streptactin beads (50% slurry) for 30 minutes at 4°C with end-over-end mixing, washed twice with 1 ml PBS and resuspended in 100 µl of modified Tyrodes buffer. Platelets were resuspended in modified Tyrodes buffer at a concentration of 2×10^9 cells/ml under non-aggregating conditions (10 µM indomethacin, 1 mM EGTA and 2 U/ml apyrase). Cells were activated with 1 ug/ml CRP for 90 seconds under stirring, but non-aggregating conditions, before reactions were terminated by the addition of 500 µl 2× NP40 lysis buffer (150 mM NaCl, 10 mM Tris pH 7.5, 1 mM EGTA, 1 mM EDTA, 1% NP-40) with inhibitors (Roche Complete mini protease inhibitor cocktail, 5 mM NaF, 5 mM NaVO4, 250 nM beta-glycerophosphate) and placed on ice. Lysates were pooled and pre-cleared as a batch with 200 µl streptactin beads (50% slurry). Non-specific interactions were then removed by centrifugation at 4,750 g for 15 minutes at 4°C. Pre-cleared lysates were incubated with 50 µl peptide/bead conjugate (50% slurry) at 4°C for 30 minutes with end-over-end mixing. […]
(§2) Although likely that these interactions are direct, this has not yet been conclusively shown. […] Peptide associated material was separated by SDS-PAGE and assessed for the presence of SHP-1 and SHP-2 by Western blotting, both of which were clearly identified (Figure 1C).

SHP-1 = test: Peptide pull down from platelet lysate, SHP-1; format: binding; conditions: human platelet lysate, Western blotting; 4°C, 30 min; n = 3
Method: as §1, §2

Syk = molecular target: T1, Syk (Homo sapiens, UniProt P43405); test: SPR (BIAcore 3000), Syk SH2 domains; format: binding; conditions: HBS pH 7.4, 37°C, n = 3
T1 construct: made in house
Method: Experiments were conducted on a BIAcore™ 3000 in HBS buffer (0.01 M HEPES, pH 7.4, containing 0.15 M NaCl, 3 mM EDTA, and 0.005% v/v P-20, GE Life Sciences, Amersham, UK). Streptavidin was coupled to a research grade CM5 chip (GE Life Sciences, Amersham, UK) as previously described, [13]. Protein-peptide interactions were carried out a rate of 10 µl/min at a constant temperature of 37°C to more accurately reflect physiological conditions. Biotinylated peptides were bound to the streptavidin-coated CM5 chips at 37°C to between 25–50 RU [14]. Purified monomeric SH2 domains were passed over the immobilised peptides at a range of concentrations. Anti-phosphotyrosine monoclonal antibody (Sigma, Poole, U.K.) was passed over the chip to saturation at the end of each experiment to verify peptide coverage on the chip. Binding affinities for the single ITIM/ITSM peptides were determined by plotting equilibrium binding measurements (RU) against SH2 domain protein concentration (Origin 8, OriginLab, MA, USA). KD was defined as the concentration of SH2 protein that gave half maximal binding to the peptide. For the 60-mer peptides, SH2 domains were passed over the chip surface at 50 µl/min. KD was determined as Koff/Kon, which were determined using both GraphPad Prism 5.0 (GraphPad, La Jolla, CA, USA) and BIAevaluation Software (GE Life Sciences, Amersham,UK). […]

[1] = molecular target: T2, SHP-1 tandem (N+C) SH2 domains (Homo sapiens, UniProt P29350); test: SPR (BIAcore 3000), SHP-1 tandem (N+C) SH2 domains; format: binding
T2 construct: host or cells: E. coli BL21(DE3)
T2 sequence (P29350 1-213 limits assumed): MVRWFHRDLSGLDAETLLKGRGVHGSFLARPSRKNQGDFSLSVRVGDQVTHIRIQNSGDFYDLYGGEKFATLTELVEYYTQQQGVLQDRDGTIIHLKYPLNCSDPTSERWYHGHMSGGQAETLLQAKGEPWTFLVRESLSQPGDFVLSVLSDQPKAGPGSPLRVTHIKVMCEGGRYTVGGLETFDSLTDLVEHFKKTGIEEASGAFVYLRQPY
T2 sequence (O95866 182-241 partner limits assumed): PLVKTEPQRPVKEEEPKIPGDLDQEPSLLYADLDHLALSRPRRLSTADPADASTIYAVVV
Method: (§3) These proteins were expressed in BL21(DE3) cells (Invitrogen) induced with 1 mM IPTG for 4 hours at 37°C. Bacteria were pelleted and washed in PBS/0.5 M NaCl prior to sonication in PBS/0.5 M NaCl, in the presence of protease inhibitor cocktail (Complete, EDTA-free, Roche). Soluble and insoluble fractions were separated by centrifugation at 30,000 g for 60 minutes. Soluble fractions containing tagged proteins were incubated for 1 hour at 4°C with end-over-end mixing in the presence of washed Ni-Sepharose (GE Lifesceinces, Little Chalfont, U.K.) supplemented with 40 mM imidazole or Amylose resin (NEB, Herts, U.K). Proteins were eluted according to the manufacturer's instructions and purified by size exclusion chromatography on an AKTApurifier (GE Lifesciences, Little Chalfont, U.K).
Experiments were conducted on a BIAcore™ 3000 in HBS buffer (0.01 M HEPES, pH 7.4, containing 0.15 M NaCl, 3 mM EDTA, and 0.005% v/v P-20, GE Life Sciences, Amersham, UK). […] Binding affinities for the single ITIM/ITSM peptides were determined by plotting equilibrium binding measurements (RU) against SH2 domain protein concentration (Origin 8, OriginLab, MA, USA). […] KD was determined as Koff/Kon, which were determined using both GraphPad Prism 5.0 (GraphPad, La Jolla, CA, USA) and BIAevaluation Software (GE Life Sciences, Amersham,UK). […]

[2] = molecular target: T3, N-terminal SH2 domain of SHP-2 (Homo sapiens, UniProt Q06124); test: SPR (BIAcore 3000), single N-terminal SH2 domain of SHP-2; format: binding; conditions: equilibrium binding, single site fitting, HBS pH 7.4, 37°C, 10 µl/min, read-out: KD
T3 construct: SHP-2 (N)SH2 (His-tag) (OMC #3912); His-tag; host or cells: E. coli BL21(DE3)
T3 sequence (Q06124 6-102 limits assumed): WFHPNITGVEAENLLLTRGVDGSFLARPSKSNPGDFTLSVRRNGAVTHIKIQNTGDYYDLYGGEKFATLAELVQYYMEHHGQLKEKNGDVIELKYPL
Method: as §3
Experiments were conducted on a BIAcore™ 3000 in HBS buffer (0.01 M HEPES, pH 7.4, containing 0.15 M NaCl, 3 mM EDTA, and 0.005% v/v P-20, GE Life Sciences, Amersham, UK). Streptavidin was coupled to a research grade CM5 chip (GE Life Sciences, Amersham, UK) as previously described, [13]. Protein-peptide interactions were carried out a rate of 10 µl/min at a constant temperature of 37°C to more accurately reflect physiological conditions. Biotinylated peptides were bound to the streptavidin-coated CM5 chips at 37°C to between 25–50 RU [14]. Purified monomeric SH2 domains were passed over the immobilised peptides at a range of concentrations. Anti-phosphotyrosine monoclonal antibody (Sigma, Poole, U.K.) was passed over the chip to saturation at the end of each experiment to verify peptide coverage on the chip. Binding affinities for the single ITIM/ITSM peptides were determined by plotting equilibrium binding measurements (RU) against SH2 domain protein concentration (Origin 8, OriginLab, MA, USA). KD was defined as the concentration of SH2 protein that gave half maximal binding to the peptide. […] KD was determined as Koff/Kon, which were determined using both GraphPad Prism 5.0 (GraphPad, La Jolla, CA, USA) and BIAevaluation Software (GE Life Sciences, Amersham,UK).

[3] = molecular target: T4, SHP-2 tandem (N+C) SH2 domains (Homo sapiens, UniProt Q06124); test: SPR (BIAcore 3000), SHP-2 tandem (N+C) SH2 domains; format: binding; conditions: kinetic (koff/kon), single site model, HBS pH 7.4, 37°C, 50 µl/min, mean, n = 5, SEM
T4 construct: SHP-2 (N+C)SH2 domains (His-tag) (3911); His-tag; host or cells: E. coli BL21(DE3)
T4 sequence (Q06124 1-216 limits assumed): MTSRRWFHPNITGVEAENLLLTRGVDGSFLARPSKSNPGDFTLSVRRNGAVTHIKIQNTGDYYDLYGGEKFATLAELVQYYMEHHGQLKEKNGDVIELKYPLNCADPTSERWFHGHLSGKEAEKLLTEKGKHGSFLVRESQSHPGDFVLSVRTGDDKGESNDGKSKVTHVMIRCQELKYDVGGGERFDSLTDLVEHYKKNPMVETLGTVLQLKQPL
T4 sequence (O95866 182-241 partner limits assumed): T2 sequence (O95866 182-241 partner limits assumed)
Method: Experiments were conducted on a BIAcore™ 3000 in HBS buffer (0.01 M HEPES, pH 7.4, containing 0.15 M NaCl, 3 mM EDTA, and 0.005% v/v P-20, GE Life Sciences, Amersham, UK). Streptavidin was coupled to a research grade CM5 chip (GE Life Sciences, Amersham, UK) as previously described [12], [13]. Protein-peptide interactions were carried out a rate of 10 µl/min at a constant temperature of 37°C to more accurately reflect physiological conditions. Biotinylated peptides were bound to the streptavidin-coated CM5 chips at 37°C to between 25–50 RU [14]. Purified monomeric SH2 domains were passed over the immobilised peptides at a range of concentrations. Anti-phosphotyrosine monoclonal antibody (Sigma, Poole, U.K.) was passed over the chip to saturation at the end of each experiment to verify peptide coverage on the chip. Binding affinities for the single ITIM/ITSM peptides were determined by plotting equilibrium binding measurements (RU) against SH2 domain protein concentration (Origin 8, OriginLab, MA, USA). […] For the 60-mer peptides, SH2 domains were passed over the chip surface at 50 µl/min. KD was determined as Koff/Kon, which were determined using both GraphPad Prism 5.0 (GraphPad, La Jolla, CA, USA) and BIAevaluation Software (GE Life Sciences, Amersham,UK).
We kinetically determined the binding affinity (KD = koff/kon) by SPR at physiological temperatures.

[4] = tested on: washed human platelets (thrombin); test: Activation of TAT-peptide-loaded platelets, thrombin; format: cell-based; conditions: platelets loaded with 10 µM peptide, 15 min, 30°C; data not shown
Method: Whole blood was taken from healthy volunteers and collected into 50 ml syringes containing 5 ml acid citrate-dextrose (ACD) in accordance with procedures approved by the Local Research Ethics Committee (Ref: 07/Q1603/17). Platelet-rich plasma (PRP) was isolated by centrifugation at 200 g for 10 minutes at room temperature. PRP was pooled and 10 µg PGI2 was added before centrifugation at 1000 g for 10 minutes at room temperature. Platelets were resuspended in 1 ml Tyrodes buffer (134 mM NaCl, 0.34 mM Na2HPO4, 2.9 mM KCl, 12 mM NaHCO3, 20 mM HEPES, 5 mM glucose, 1 mM MgCl2, pH 7.3) pre-warmed to 30°C and 150 µl ACD. The volume was adjusted to 25 ml with Tyrodes buffer, followed by 3 ml ACD and 1.25 µg PGI2. […]
Fluorescein-labelled, TAT-G6B-b peptides were synthesised by Peptide Protein Research Ltd (Hampshire, U.K.). […] Peptides were loaded into washed platelets by incubation with 10 µM peptide for 15 minutes at 30°C, after which they were assessed by light transmission aggregometry. […]
Washed human platelets were loaded with TAT-G6B-b peptides (either dual phosphorylated or unphosphorylated) and changes in CRP efficacy determined by light transmission aggregometry. […]

[5] = tested on: washed human platelets (CRP); test: Light transmission aggregometry of TAT-peptide-loaded platelets, CRP; format: cell-based; conditions: for effect on EC50 / sensitivity to CRP: washed human platelets, TAT peptide loading
Method: (§4) Whole blood was taken from healthy volunteers and collected into 50 ml syringes containing 5 ml acid citrate-dextrose (ACD) in accordance with procedures approved by the Local Research Ethics Committee (Ref: 07/Q1603/17). Platelet-rich plasma (PRP) was isolated by centrifugation at 200 g for 10 minutes at room temperature. PRP was pooled and 10 µg PGI2 was added before centrifugation at 1000 g for 10 minutes at room temperature. Platelets were resuspended in 1 ml Tyrodes buffer (134 mM NaCl, 0.34 mM Na2HPO4, 2.9 mM KCl, 12 mM NaHCO3, 20 mM HEPES, 5 mM glucose, 1 mM MgCl2, pH 7.3) pre-warmed to 30°C and 150 µl ACD. The volume was adjusted to 25 ml with Tyrodes buffer, followed by 3 ml ACD and 1.25 µg PGI2. Cells were centrifuged at 1000 g for 10 minutes at room temperature and the resultant cell pellet was resuspended in 1 ml pre-warmed Tyrodes buffer before adjusting the volume to a final cell density of 4×10^8 cells/ml (aggregations) or 2×10^9 cells/ml (peptide pull downs). Where appropriate, 1 mM EGTA, 10 µM indomethacin and 2 U/ml apyrase were added to inhibit aggregations (referred to as non-aggregating conditions).
(§5) Fluorescein-labelled, TAT-G6B-b peptides were synthesised by Peptide Protein Research Ltd (Hampshire, U.K.). Peptides were either unphosphorylated, or phosphorylated at both ITIMs as follows: Dual phosphorylated peptide – FLUO- […]*[…]*AVVV or unphosphorylated control peptide (lacking tyrosine phosphorylation) - FLUO- […]. TAT sequences are underlined and phosphorylated tyrosines marked with an asterisk. Peptides were loaded into washed platelets by incubation with 10 µM peptide for 15 minutes at 30°C, after which they were assessed by light transmission aggregometry. Peptide loading conditions were optimised and verified by flow cytometry.
(§6) Washed human platelets were loaded with TAT-G6B-b peptides (either dual phosphorylated or unphosphorylated) and changes in CRP efficacy determined by light transmission aggregometry. […] Thrombin-mediated activation was unaffected (data not shown). […] Peptide loading was verified by flow cytometry (Figure 9C and 9D.

[6] = tested on: washed human platelets (collagen); test: Light transmission aggregometry of TAT-peptide-loaded platelets, collagen; format: cell-based; conditions: for effect on EC50 / sensitivity to collagen: washed human platelets, TAT peptide loading
Method: as §4, §5, §6

[7] = 10 µM peptide, 15 min, 30°C, vs vehicle control
[8] = listed as G6B-b dual phosphorylated peptide

unphosphorylated control peptides: biotinylated 60-mer G6B-b peptide (182 to 241), unphosphorylated (PLVKTEPQRPVKEEEPKIPGDLDQEPSLLYADLDHLALSRPRRLSTADPADASTIYAVVV; also: biotinylated (end not given here))
association (SHP-2): No SHP-1 or SHP-2 bound
association (SHP-1): No SHP-1 or SHP-2 bound

PLVKTEPQRPVKEEEPKIPGDLDQEPSLL[pY]ADLDHLALSRPRRLSTADPADASTI[pY]AVVV [dual phosphopeptide]
Kd (Syk): ~25 µM
Koff ([1]; 37°C, dual peptide, read-out: Koff (dissociation rate)): 0.01 s⁻¹
Kd ([1]; kinetic (koff/kon), single site model, HBS pH 7.4, 37°C, 50 µl/min, mean, n = 5, SEM, read-out: binding affinity (KD)): 35.3 ± 4.3 nM
Kd [2]: 130 nM
Kd [3]: 0.48 ± 0.09 nM

FLUO- GRKKRRQRRRPQDLDQEPSLLY*ADLDHLALSRPRRLSTADPADASTIY*AVVV [dual phosphorylated G6B-b TAT-peptide, Fluorescein-labelled TAT-G6B-b peptide phosphorylated at both ITIMs]
thrombin-mediated activation [4]: unaffected
fold increase in EC50 of CRP [5, 7]: ~1.65 fold
effect on EC50 / sensitivity to CRP [5]: can reduce the EC50 for both CRP and collagen
effect on EC50 / sensitivity to CRP [5, 8]: reduces platelet sensitivity to GPVI agonists
fold increase in EC50 of collagen [6, 7]: 2.5 fold
effect on EC50 / sensitivity to collagen [6]: can reduce the EC50 for both CRP and collagen
effect on EC50 / sensitivity to collagen [6, 8]: reduces platelet sensitivity to GPVI agonists
